From paper PMC12084297, “Cytoplasmic connexin43-microtubule interactions promote glioblastoma stem-like cell maintenance and tumorigenicity” (Cell Death & Disease, 2025)

Experiments:
α-tubulin = experiment: Cellular thermal shift assay (CETSA), α-tubulin target engagement; type: binding, human; conditions: fresh VTC-037 GSC lysates, 3-fold dilutions 222.2-2.7 nM, 1 h, heat challenge 57 °C (Tagg(75)) 20 min, immunoblot, normalized to DMSO control
Experimental: (§1) For an initial determination of the melting profile of α- and β- tubulin, fresh lysates of GSCs prepared in non-denaturing buffer were dispensed into 96-well PCR plate in stem cell medium (approximately 10,000 cells/well/50 µl), and then subjected to temperature gradient (37–65 °C) for 20 min. Subsequently, centrifugation was performed at 14,000 rpm to sediment the unstable protein content. Supernatant was collected and SDS-PAGE gel was run, and immunodetection was performed to detect α- and β- tubulin using specific primary antibodies described above. A rabbit antibody against β-actin (Cell Signaling Technology; 4970) was used as negative control. Band intensities were quantified on LI-COR C-DiGit Blot Scanner, and subsequently Tagg(50) and Tagg(75) values were calculated for α- and β- tubulin. In a subsequent run, fresh lysates of GSCs were treated at various doses with 3-fold dilutions (222.2, 74.0, 24.7, 8.2 and 2.7 nM) of peptides JM2 and JM2-scrambled, together with DMSO as control, for 1 h. Samples were then subjected to heat challenge at 57 °C for 20 min, and unstable protein was removed by centrifugation step. Following an immunoblotting step, band intensities of the stable tubulin was quantified, and normalized to DMSO control. EC50 values of engagement for both peptide with α- and β- tubulin were subsequently calculated.

β-actin = biological target: T1, β-actin (Homo sapiens, UniProt P60709); experiment: Cellular thermal shift assay (CETSA), actin negative control; type: binding; conditions: VTC-037 GSC lysates, 57 °C, β-actin as negative control
T1 construct: fresh lysates of GSCs prepared in non-denaturing buffer; endogenous in cells; host or cells: VTC-037 patient-derived glioblastoma stem-like cells (lysate)
Experimental: as §1

VTC-034 GSCs = experiment: Caspase 3/7 activity, VTC-034 GSCs; type: cell-based, human; conditions: VTC-034 adherent GSCs, 10, 50 or 100 μM, 48 h, Caspase-Glo 3/7
Experimental: Cells were plated in 96-well plates (2000–5000 cells per well) and treated the following day with TMZ (10, 50, or 100 μM), antennapedia, JM2-scrambled, or JM2 (10, 50, or 100 μM). After 4 days, cell viability was monitored following addition of MTS reagent (Promega) according to manufacturer’s instructions. The absorbance at 490 nm was measured using a SpectraMax i3 or iD3 microplate reader (Molecular Devices). For the caspase 3/7 activity assay, cells were plated in 96-well plates (2000 cells per well) and treated with TMZ or peptides as described above. The activity of caspase 3/7 was measured after 48 h using the Caspase-Glo® 3/7 assay (Promega) following the manufacturer’s instructions. Fold change of caspase 3/7 activity was defined as the ratio of caspase 3/7 luminescence in treated cells compared to controls.

PDX GBM22 tumor [1] = experiment: PDX GBM22 tumor growth in mouse flank; type: in vivo, mouse (athymic nude), human GBM22 cells; conditions: 300 μM intratumorally every day for 14 days, n = 7 mice per group
Experimental: Animal studies were approved by the Institutional Animal Care and Use Committee (IACUC) of Virginia Tech. Female athymic nude mice (Envigo) aged 6-8 weeks were used for the maintenance and propagation of PDX GBM22 cells. PDX GBM22 tumors were maintained by serial passage in nude mouse flanks as described previously. Briefly, tumors were harvested 14–18 days post-injection and glioblastoma cells were mechanically and enzymatically dissociated. […] After 2 days, tumors were measured and mice were randomly separated into three groups (7 mice per group), and vehicle/control (PBS), JM2-scrambled or JM2 were administered at 300 μM intratumorally every day for 14 days. Tumors were then measured by blinded investigators and harvested for analysis (see section below). Tumor volume was calculated using the formula (length × width^2)/2. […] After 7 days, tumors were measured and mice were randomly separated into three groups; vehicle/control (PBS), JM2-scrambled, and JM2 (3 mice per group). […] Tumor sizes were measured by electronic calipers at different times by blinded investigators, and tumor volume was calculated using the formula (length × width^2)/2.

PDX GBM22 tumor [2] = experiment: TUNEL and H&E of GBM22-derived tumor sections; type: in vivo, mouse (athymic nude), human GBM22 cells; conditions: GBM22 tumors, 300 μM intratumorally every day for 14 days, harvested after 16 days
Experimental: Tumors were harvested, snap-frozen in Tissue-Tek® O.C.T. compound (Sakura), and stored at −80 °C until sectioning. […] sections were cut using a Leica CM1850 UV cryostat, placed onto Superfrost Plus^TM slides (Fisher Scientific) and fixed in −20 °C acetone for 5 minutes before air drying. Slides were stored at −80 °C prior to labeling. Tumors sections were then rehydrated in PBS for 5 min, permeabilized in 0.1% Triton X-100 in PBS for 1 h at room temperature, and washed four times with PBS (2 x quick, 2 × 5 min) prior to incubating with streptavidin conjugated to Alexa Fluor 647 (Thermo Fisher) diluted in high-salt buffer (0.5 M NaCl, 10 mM Hepes) for 30 min at room temperature. Tumor sections were then washed four times with high-salt buffer (2 x quick, 2 × 10 min), and twice with PBS (2 × 5 min) before using One-step TUNEL In Situ Apoptosis kit (Green Elab Fluor® 488; Elabscience), according to manufacturer’s instructions. Tumor sections were then washed in PBS (3 × 5 min), incubated with DAPI (Thermo Fisher) in PBS for 5 min, and washed again with PBS (4 × 5 min) before the slides were mounted using Prolong Gold Antifade (Thermo Fisher). GBM22-derived tumor sections were analyzed using fluorescence confocal microscopy on a Nikon NIE upright confocal microscope, while LN229/GSC-derived tumor sections were observed using LED illumination microscopy on a Revolve microscope. For hematoxylin and eosin (H&E) staining, tumor sections were stained using a Histo-Tek® SL Slide Stainer (Sakura), and observed using phase contrast microscopy on a Revolve microscope. Investigators were blinded for all image acquisition experiments.

Sequence | EC50 (α-tubulin) | EC50 target engagement, actin (negative control) (β-actin) | Apoptosis induction (caspase 3/7 activity) (VTC-034 GSCs) | GBM22-derived tumor growth (PDX GBM22 tumor [1]) | Cell death in tumor sections (TUNEL) (PDX GBM22 tumor [2]) | Cell death in tumor sections (H&E) (PDX GBM22 tumor [2])
GSDVFKRKFVDRKVG [JM2-scrambled, reference compound] | > 200 nM | no EC50 was detected | inefficient in inducing apoptosis | observed GBM22-derived tumor formation | no significant correlation was observed | 
VFFKGVKDRVKGRSD [JM2] | 8.4 nM | no EC50 was detected | increased caspase 3/7 activity in these cells in a dose-dependent manner | did not detect any significant tumor growth | Positive JM2 signal within the tumors correlated with an increase in cell death | Increased cell death within JM2-treated tumors was further confirmed
